Laboratory results taken from ChEMBL document CHEMBL1143820, “Mutations in 16S rRNA and ribosomal protein S5 associated with high-level spectinomycin resistance in Pasteurella multocida” (2007).
≈ marks a conversion by molar mass, not a printed value.

What was measured:
Format in all cases: functional
Pasteurella multocida [1] = test: Antibacterial activity against Pasteurella multocida isolate 8 with operon A,B,C,D,E 16S rRNA C1192G transversion mutation by CLSI M31-A2 method
Pasteurella multocida [2] = test: Antibacterial activity against Pasteurella multocida isolate 9 with operon B,C 16S rRNA C1192G transversion mutation and S5 protein 32-SF-33>32I mutation by CLSI M31-A2 method
Pasteurella multocida [3] = test: Antibacterial activity against Pasteurella multocida isolate 10 with operon B,C 16S rRNA C1192G transversion mutation and S5 protein 32-SF-33>32I mutation by CLSI M31-A2 method
Pasteurella multocida [4] = test: Antibacterial activity against Pasteurella multocida isolate 11 with operon B,C 16S rRNA C1192G transversion mutation and S5 protein 32-SF-33>32I mutation by CLSI M31-A2 method
Pasteurella multocida [5] = test: Antibacterial activity against Pasteurella multocida isolate 1 with operon A,B,C,D,E,F 16S rRNA C1192G transversion mutation by CLSI M31-A2 method
Pasteurella multocida [6] = test: Antibacterial activity against Pasteurella multocida isolate 2 with operon A,B,C,D,E,F 16S rRNA C1192G transversion mutation by CLSI M31-A2 method
Pasteurella multocida [7] = test: Antibacterial activity against Pasteurella multocida isolate 3 with operon A,B,C,D,E,F 16S rRNA C1192G transversion mutation by CLSI M31-A2 method
Pasteurella multocida [8] = test: Antibacterial activity against Pasteurella multocida isolate 4 with operon A,B,C,D,E,F 16S rRNA C1192G transversion mutation by CLSI M31-A2 method
Pasteurella multocida [9] = test: Antibacterial activity against Pasteurella multocida isolate 5 with operon A,B,C,D,E,F 16S rRNA C1192G transversion mutation by CLSI M31-A2 method
Pasteurella multocida [10] = test: Antibacterial activity against Pasteurella multocida isolate 6 with operon A,B,C,D,E 16S rRNA C1192G transversion mutation by CLSI M31-A2 method
Pasteurella multocida [11] = test: Antibacterial activity against Pasteurella multocida isolate 7 with operon A,B,C,D,E 16S rRNA C1192G transversion mutation by CLSI M31-A2 method
Pasteurella multocida [12] = test: Antibacterial activity against Pasteurella multocida isolate 12 with operon B,C 16S rRNA C1192G transversion mutation and S5 protein 32-SF-33>32I mutation by CLSI M31-A2 method
Pasteurella multocida [13] = test: Antibacterial activity against Pasteurella multocida isolate 13 with loss of 23K in S5 protein by CLSI M31-A2 method
Pasteurella multocida [14] = test: Antibacterial activity against Pasteurella multocida isolate 14 by CLSI M31-A2 method
Pasteurella multocida [15] = test: Antibacterial activity against Pasteurella multocida isolate 15 by CLSI M31-A2 method
Pasteurella multocida [16] = test: Antibacterial activity against Pasteurella multocida isolate 16 by CLSI M31-A2 method
Pasteurella multocida [17] = test: Antibacterial activity against Pasteurella multocida isolate 17 by CLSI M31-A2 method

CN[C@@H]1[C@H](O)[C@H](NC)[C@H]2O[C@@]3(O)C(=O)C[C@@H](C)O[C@H]3O[C@@H]2[C@H]1O [SPECTINOMYCIN]
MIC (Pasteurella multocida [1]): 4100 µg/mL (≈ 12.3 mM) | MIC (Pasteurella multocida [2]): 4100 µg/mL (≈ 12.3 mM) | MIC (Pasteurella multocida [3]): > 8190 µg/mL | MIC (Pasteurella multocida [4]): > 8190 µg/mL | MIC (Pasteurella multocida [5]): > 8190 µg/mL | MIC (Pasteurella multocida [6]): > 8190 µg/mL | MIC (Pasteurella multocida [7]): > 8190 µg/mL | MIC (Pasteurella multocida [8]): > 8190 µg/mL | MIC (Pasteurella multocida [9]): > 8190 µg/mL | MIC (Pasteurella multocida [10]): 4100 µg/mL (≈ 12.3 mM) | MIC (Pasteurella multocida [11]): 8190 µg/mL (≈ 24.6 mM) | MIC (Pasteurella multocida [12]): > 8190 µg/mL | MIC (Pasteurella multocida [13]): 4100 µg/mL (≈ 12.3 mM) | MIC (Pasteurella multocida [14]): 16 µg/mL (≈ 0.0481 mM) | MIC (Pasteurella multocida [15]): 16 µg/mL (≈ 0.0481 mM) | MIC (Pasteurella multocida [16]): 16 µg/mL (≈ 0.0481 mM) | MIC (Pasteurella multocida [17]): 16 µg/mL (≈ 0.0481 mM)
